Tested on: CypA
Assay: HA peptide isomerization
Assay type: biochemical
Conditions: Pro2 of the HA peptide

YPTDVPDYA [HA]
isomerization at Pro2: not isomerized by CypA

— article PMC5336394 (Structure (London, England : 1993), 2017)
